According to US20060094771A1, “Carvedilol pharmasolve solvate” (priority 2002, published 2006):

Assay: Solubility of carvedilol in Pharmasolve
Assay type: physicochemical
Details: solvent Pharmasolve (N-methyl-2-pyrrolidone)

SMILES: COc1ccccc1OCCNCC(O)COc1cccc2[nH]c3ccccc3c12 (racemic) [carvedilol]
- solubility of carvedilol in Pharmasolve: 1.6 gram of drug per gram of pharmasolve
